In PubChem BioAssay (NCI) one finds GI50 and TGI data, which are given here for 44 compounds.

The structures appear in SMILES notation.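 These data come from cells grown in 96-well plates and exposed to compound for 48 hours at five concentrations. Abbreviation: GI50, concentration required for 50% inhibition of growth. TGI denotes the concentration required for complete inhibition of growth.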

In this test the test system is MDA-MB-468 breast. In words: growth of human tumour cells (NCI), 48 h.
Turning to `CNC(=O)c1c(C)oc2cc(Oc3ncnc4cc(OC)c(OC)cc34)ccc12`, the GI50 was over 100 µM and the TGI was over 100 µM. As for `COc1ccc(/C=C\c2cc(OC)c(OC)c(OC)c2)cc1OCC(=O)Nc1nc2ccc(F)cc2s1`, the GI50 was 3.68 µM and the TGI was over 100 µM. Consider `CC[C@H](C)[C@H](NC(=O)[C@H]1CCCCN1C)C(=O)N(C)[C@H](C[C@@H](OC(C)=O)c1cccc(C(=O)N[C@@H](Cc2ccccc2)C[C@H](C)C(=O)OC)n1)C(C)C`, for which the GI50 was 0.000917 µM. Turning to `CNC(=O)c1ccc(N2C(=S)N(c3cnc(C#N)c(C(F)(F)F)c3)C(=O)C23CCC3)cc1F`, the GI50 is 49.6 µM and the TGI is over 100 µM. For `O=C1Nc2c(ccc(Cl)c2Cl)/C1=C/c1cc(Br)c(O)c(Br)c1`, the GI50 is 2.96 µM and the TGI was over 26.3 µM.

In the case of `Cc1onc(-c2ccccc2)c1C(=O)N/N=C/c1cc(Cl)cc(Cl)c1O`, the GI50 is 3.89 µM and the TGI stood at 42.9 µM. For `COc1ccccc1Nc1cc(O)c2c(=O)cc(-c3ccccc3)oc2c1` the same measures were 1.5 µM and 6.42 µM. As for `COc1ccc(Cn2cc3c(c2-c2cc(OC)c(OC)c(OC)c2)CCCc2cnoc2-3)cc1`, the GI50 is 0.563 µM and the TGI is over 100 µM. In the same order, the values of `CCOC(=O)c1cc(C(=O)c2ccc(OC)cc2)n2ccc(/C=C/c3cc[n+](CC(=O)c4ccc(OC)cc4)cc3)cc12` are 1.71 µM and 3.63 µM. Consider `C=C(c1ccc(OC)c(/C=C/C(=O)c2ccc3c(c2)OCO3)c1)c1cc(OC)c(OC)c(OC)c1`, for which the GI50 was 1.65 µM and the TGI was 8.92 µM. For `Oc1c(Cl)cc(Cl)c(Cl)c1CNCCNCc1c(O)c(Cl)cc(Cl)c1Cl` the same measures were 0.917 µM and 5.85 µM. Consider `COc1ccc(C2(Cl)c3ccccc3N(c3ccccc3)c3ccccc32)cc1`, for which the GI50 was 0.391 µM and the TGI is 2.1 µM. Regarding `CCCCCCCCCCCCCCCC1=NCC[N+]1(CCO)CCO`, the GI50 is 2.13 µM and the TGI came to 7.03 µM.

As for `O=C(N/N=C/c1ccc([N+](=O)[O-])o1)c1[nH]c2ccc(Br)cc2c1-c1ccccc1`, the GI50 is 0.304 µM and the TGI stood at 1.7 µM.

For the compound `Cc1cccc2sc(/N=C(\N)C(Br)Br)nc12`, the GI50 was 1.63 µM and the TGI is 4.58 µM. In the same order, the values of `O=C(CSc1nc2c(n1Nc1ccccc1)-c1ccccc1SC2)Nc1nc(-c2ccc(Cl)cc2)cs1` are 18 µM and over 100 µM.

Take `O=C1N[C@@H]2[C@@H](O)[C@@H](O)[C@H](O)C[C@H]2c2cc3c(c(O)c21)OCCO3`: the GI50 was 0.0955 µM and the TGI is 0.455 µM.

Regarding `Cc1cc2c(C(=O)NC[C@H](C)c3ccccc3)c(O)c(O)cc2c(O)c1-c1c(C)cc2c(C(=O)NC[C@H](C)c3ccccc3)c(O)c(O)cc2c1O`, the GI50 was 0.596 µM and the TGI stood at 3.38 µM. For `O=C1NC(=C(Cl)Cl)/C(=N/S(=O)(=O)N2CCCCC2)N1` the same measures were 2.39 µM and 13.3 µM. For the compound `CCc1ccc(Oc2c(-c3ccc(OCc4ccc(Cl)cc4)cc3O)n[nH]c2C(F)(F)F)cc1`, the GI50 was 1.73 µM and the TGI came out at 3.96 µM.

With `COc1cc2c(cc1OC(C)C)[C@H](c1ccc(Cl)cc1)N(c1ccc(N(C)CC3CCC(N4CCN(C)C(=O)C4)CC3)cc1)C(=O)C2` (some centres not stated), the GI50 is 3.37 µM and the TGI was 8.93 µM. In the same order, the values of `C=CN(C(=O)N1CCN(c2cc3c(cc2F)c(=O)c(C(=O)O)cn3C2CC2)CC1)c1nc(-c2ccc(OC)cc2)cs1` are 3.07 µM and 28 µM. For `Fc1ccc(-c2c(-c3ccncc3)nc3n2CCS3)cc1` the same measures were over 10.4 µM and over 25 µM. For `CC(C)C[C@H](NC(=O)CNC(=O)c1cc(Cl)ccc1Cl)B(O)O` the same measures were under 0.0137 µM and 0.0217 µM. Turning to `Fc1ccc(-c2cc3nc(C(Cl)Cl)nc(-c4ccco4)n3n2)cc1`, the GI50 is 0.242 µM and the TGI is 0.793 µM. For `O=c1oc2ccc(I)cc2c(=O)n1-c1ccc(Br)cc1F` the same measures were 1.45 µM and 4.88 µM. For `CN[C@H]1CN(c2ccc3c(=O)c(C(=O)O)cn(-c4nccs4)c3n2)C[C@@H]1OC` the same measures were 0.822 µM and 2.86 µM.

In the case of `Clc1c(Cl)[n+](Cc2ccc3ccccc3c2)cn1Cc1ccc2ccccc2c1`, the GI50 was 0.668 µM and the TGI stood at 2.28 µM. In the same order, the values of `OC(CNc1ccnc2cc(Cl)ccc12)CNc1ccnc2cc(Cl)ccc12` are 1.43 µM and 2.93 µM. In the same order, the values of `Cc1c(C)n(CCCN2CCN(C)CC2)c2ccc(Oc3cccc(C(=O)N4CCN(CCc5ccc(F)cc5)CC4)c3)cc12` are 1.16 µM and 2.47 µM.

For the compound `O=c1c2ccccc2sc2c(NCCCNCCO)nc3ccccc3c12`, the GI50 was 1.52 µM and the TGI came to 3.12 µM.

For `CC(C)(C)C(=O)OCOP(=O)(NCc1ccccc1)C1CCCN(O)C1=O` (configuration not stated), the GI50 was 1.43 µM and the TGI came out at 5.07 µM. With `Cc1cc2nc(NCCN)n(Cc3ccc(F)c(Cl)c3)c2cc1C`, the GI50 is 3.61 µM and the TGI is 15.8 µM.

Turning to `COc1cc2c(c(OC)c1OC)-c1ccc(OC)c(=O)cc1C(NC(=O)COc1ccccc1)CC2` (configuration not stated), the GI50 was under 0.01 µM and the TGI came out at 59.4 µM. For `CCOC(=O)c1c(NC(=O)c2ccc(C(F)(F)F)cc2)sc2c(CN3CCN(C)CC3)c(O)ccc12` the same measures were 1.78 µM and 3.93 µM.

Turning to `COc1ccc2ncn(-c3cc(O[C@H](C)c4ccccc4C(F)(F)F)c(C(N)=O)s3)c2c1`, the GI50 is 0.067 µM and the TGI was 1 µM. In the same order, the values of `COc1cc(/C=C/c2cc(/C=C/c3ccc(O)c(OC)c3)n(C(=O)c3ccc(Cl)cc3)n2)ccc1O` are 2.64 µM and 7.9 µM. In the same order, the values of `COc1cc(C(=O)NC2CCc3cc(OC)c(OC)c(OC)c3-c3ccc(OC)c(=O)cc32)cc(OC)c1OC` (configuration not stated) are 0.0853 µM and over 100 µM.

As to `C[C@@H](Oc1cc(-n2cnc3ccc(OC4CCN(C)CC4)cc32)sc1C(N)=O)c1ccccc1Cl`, the GI50 is 0.00441 µM and the TGI stood at 0.202 µM. In the same order, the values of `COc1ccc(C(=O)C(CN(C)C)CN(C)C)cc1` are 1.47 µM and 4.31 µM. In the same order, the values of `NS(=O)(=O)OC[C@H]1C[C@@H](Nc2ccnc3cc(-c4cccc(SC(F)(F)F)c4)nn23)[C@H](O)[C@@H]1O` are under 0.01 µM and under 0.0127 µM. For `CCOC(=O)C1=CCCC[C@H]1S(=O)(=O)Nc1ccc(F)cc1Cl` the same measures were 10.8 µM and 42.4 µM. Turning to `Cc1ccc(O)c(NC(=O)c2cccc(Nc3ccnc(C(F)(F)F)c3)c2)c1`, the GI50 is 3.19 µM and the TGI stood at 54.9 µM. For `CC(=O)O[C@@H]1C2CCC3C(CC[C@@]4(C)C3CC[C@@H]4C(C)N(C)C)[C@@]2(C)CC[C@@H]1NC(=O)C=C(C)C` (some centres not stated) the same measures were 1.4 µM and 3.06 µM.
